Publication PMC7598702, “Phenolome of Asian Agrimony Tea (Agrimonia asiatica Juz., Rosaceae): LC-MS Profile, α-Glucosidase Inhibitory Potential and Stability” (Foods, 2020)

Tests used:
α-glucosidase [1] = test: HPLC activity-based profiling (microfractionation) of A. asiatica extract for α-glucosidase inhibition; assay type: biochemical, Saccharomyces cerevisiae; conditions: microfractions of A. asiatica extract, main inhibition window 11.5 to 13.5 min
Description: Aliquots (100 µL) of A. asiatica extract solution (10 mg/mL) were separated under analytical HPLC conditions as described in Section 2.4. The collection of eluates (40 µL) performed every 30 s in 96-well plates. After drying and redissolving the eluates in 10 µL of PBS the eluates were investigated as described earlier. α-Glucosidase was dissolved in PBS which contained BSA (0.2%) up to 0.5 U/mL concentration and then added 125 µL of PBS and 60 µL p-nitrophenyl-α-D-glucopyranoside (5 mM). The samples were incubated at 37 °C for 5 min and then 60 µL α-glucosidase (0.4 U/mL) was added. The samples were incubated at 37 °C for 15 min. Then 50 µL sodium carbonate (200 mM) was added. Absorbance (A400) was determined at 400 nm. The rates (1-A400) were carried out to create HPLC-based bioactivity profiles of A. asiatica extract.
To characterize the chemical profile of A. asiatica herb extract microcolumn reversed-phase HPLC-PDA procedure was applied (Figure 3a). […] For identification, the components of interest of A. asiatica herb with high α-glucosidase inhibitory activity, the extract was subjected by HPLC activity-based profiling. To detect of anti-α-glucosidase inhibitors in A. asiatica herb extract, the procedure of small-scale semi-preparative microfractionation by reversed-phase HPLC was applied. […] Subsequently, microfractions were dried and redissolved in a buffer solution. Thereafter, an enzyme solution was added to estimate the inhibition of α-glucosidase by the eluate.

α-glucosidase [2] = system: α-glucosidase; parameters: method as in PMID 28045450; conditions: agrimoniin from Comarum palustre herb extract; cited from earlier work
[3] = Stability of A. asiatica phenolics in water media (infusions and decoctions, HPLC-MS quantification); assay type: physicochemical; conditions: boiling infusion (100 °C) and decoctions
Description: Quantification of compounds 1–60 were carried out using HPLC-MS data (full scan MS, peak area). The quantifications were realized under the conditions specified in Section 2.4. For the preparation of the stock solutions, 44 reference compounds (2, 6–16, 19, 23, 26, 28, 31–51, 53–56, 58–60) were carefully weighed (10 mg), then separately dissolved in methanol in a W flask (10 mL). An external standard calibration curve was constructed with the use of six data points (100, 50, 25, 10, 5, and 1 µg/mL). The calibration curves were constructed by plotting the MS peak area vs. concentration levels. Correlation coefficients, r^2; standard deviation, SYX; limits of detection, LOD; limits of quantification, LOQ; linear ranges were computed applying early reference. All analyses were performed in triplicate, data obtained were expressed as mean value ± standard deviation (SD). […] The weight of the tube was reduced to an initial sign after cooling. For analysis, the extract obtained was filtered through 0.22 μm polytetrafluoroethylene (PTFE) syringe filter and then injected into the HPLC system. […]

Compound	α-glucosidase inhibition of HPLC peaks (α-glucosidase [1])	content change on heat treatment in water [3]	other results
O=c1c(O[C@@H]2O[C@H](CO)[C@@H](O)[C@H](O)[C@H]2O)c(-c2ccc(O)c(O)c2)oc2cc(O)cc(O)c12 [Compound 41, Quercetin-3-O-glucoside]	–	–	α-glucosidase inhibition of HPLC peaks (α-glucosidase [1]; listed as isoquercitrin): less significant results of inhibition
O=C(O[C@H]1O[C@@H]2COC(=O)c3cc(O)c(O)c(O)c3-c3c(cc(O)c(O)c3O)C(=O)O[C@H]2[C@@H]2OC(=O)c3cc(O)c(O)c(O)c3-c3c(cc(O)c(O)c3O)C(=O)O[C@@H]12)c1cc(O)c(O)c(Oc2c(C(=O)O[C@H]3O[C@@H]4COC(=O)c5cc(O)c(O)c(O)c5-c5c(cc(O)c(O)c5O)C(=O)O[C@H]4[C@@H]4OC(=O)c5cc(O)c(O)c(O)c5-c5c(cc(O)c(O)c5O)C(=O)O[C@@H]34)cc(O)c(O)c2O)c1 [Compound 36, Agrimoniin]	most pronounced inhibition	–	inhibitory activity relative to α-glucosidase (α-glucosidase [2]): high inhibitory activity
O=c1oc2c(O)c(O)cc3c(=O)oc4c(O)c(O)cc1c4c23 [Compound 38, Ellagic acid]	less significant results of inhibition	–	–
O=C(O)CC(=O)OCC1OC(Oc2cc(-c3cc(=O)c4c(O)cc(O)cc4o3)ccc2O)C(O)C(O)C1O (stereo not drawn) [Compound 53, Luteolin-3-O-(6″-O-malonyl)-glucoside]	–	decreased to trace amounts	–
O=C(O)CC(=O)OC[C@H]1O[C@@H](Oc2c(-c3ccc(O)c(O)c3)oc3cc(O)cc(O)c3c2=O)[C@H](O)[C@@H](O)[C@@H]1O [Compound 45, Quercetin-3-O-(6″-O-malonyl)-glucoside]	–	decreased to trace amounts	–
